SMILES | melting point
COC(=O)CCn1c(=O)n2n(c1=O)C(C(=O)OC(C)(C)C)C=CC2 (stereo not drawn) | 77 to 78 °C
ON=Cc1ncc(-c2ccccc2)o1 | 208 to 210 °C
COc1cc(C)c(C(=O)c2c(OC)cccc2C(F)(F)F)c(OC)c1OC | 69 to 70 °C
CC(=O)Nc1nc(C)c(S(=O)(=O)NC(C)(CO)CO)s1 | 201 °C
C=CCN(CC=C)Cc1noc(-c2ncn3c2[C@@H]2CCN2C(=O)c2c-3ccc(F)c2Cl)n1 | 127 °C
CCOCC(O)COc1ccc(NC(=O)CCS(C)(=O)=O)cc1 (stereo not drawn) | 111 to 112 °C
Oc1cc(Cl)cc2c1CCC2 | 56 to 59 °C
CCC(Cl)(CC)CC(=O)c1cc(C(C)(C)C)c(O)c(C(C)(C)C)c1 | 72 °C
C1=CC2=NCCC3CCOC23C=C1 (stereo not drawn) | 170 to 171 °C
CCNc1cc([N+](=O)[O-])ccc1OCCOC | 83 to 87 °C
CSc1nc(F)cc(NN)n1 | 153 to 154 °C
CCOC(=O)c1cnc2sc(Br)c(C)c2c1O | 214 to 216 °C
CCC(C(C)=CC(CNC(=O)c1cccnc1F)=NO)[N+](=O)[O-] (stereo not drawn) | 91 to 92 °C
CCOC(=O)c1csc(NC(=O)c2cc(OC)c(OC)cc2O)n1 | 218 to 220 °C
CCOCOCCCOn1cnc2cnc(N)nc21 | 73 to 74 °C
COc1nc(C)nc(OC)c1[N+](=O)[O-] | 114 to 115 °C
N#CCNC(=O)C1(NC(=O)c2ccc(CBr)cc2)CCCCC1 | 194 to 196 °C
O=C(c1ccc(CBr)cc1)c1ccc([N+](=O)[O-])cc1 | 113 °C
On1c(-c2ccccc2)c[nH]c1=S | 191 °C
O=C(CCCC=CCC1C(O)CC(O)C1C=CC(O)CCc1ccccc1)ON1C(=O)CCC1=O (stereo not drawn) | 93.5 to 103 °C
CC(=O)Oc1ccc(C2=COc3ccccc3O2)cc1 | 123 to 125 °C
COC(=O)c1cc(S(N)(=O)=O)ccc1S(=O)(=O)CCCO | 124 to 126 °C
N#Cc1ccc(N(CCOc2ccc(OCc3ccccc3)c(Br)c2)n2cnnc2)cc1 | 163 to 166 °C
CN1CC2CCCC(C1)C2=NO | 111 to 112 °C
CCOC(=O)CC1CCC2C3CC=C4C(C)(C)C(O)CCC4(C)C3CCC12C (stereo not drawn) | 127 to 129 °C

The remaining lines, values ahead:

melting point | SMILES
206 to 208 °C | O=C1c2ccccc2C(O)(c2ccc(Cl)cc2)N1CCc1ccc([N+](=O)[O-])cc1 (stereo not drawn)
198 to 200 °C | CCn1cc(C(=O)O)c(=O)c2cc(F)c(N3CCC3CN)nc21 (stereo not drawn)
98 to 105 °C | COc1ccccc1OCC(O)CNCCOc1ccc(C(N)=O)cn1 (stereo not drawn)
198 to 201 °C | NC(=O)N1CCN(CC(O)COc2ccc(O)cc2)CC1 (stereo not drawn)
307 to 310 °C | CCCc1nc2c(C)cc(-c3nc4ccccc4n3C)cc2n1Cc1ccc(-c2ccccc2S(=O)(=O)O)cc1
75 to 77 °C | CC1(c2cccc(N)c2)OCCO1
198 to 200 °C | Cc1cccc(C)c1-n1cc(C#N)c(=O)n(C)c1=O
214 to 215 °C | CCCn1c(=O)c2c(N)n[nH]c2n(Cc2ccccc2)c1=O
100 to 101 °C | Clc1cn2c(Cl)cnc2c(Br)n1
168 to 170 °C | COc1ccc(CSc2c(O)cc(-c3ccccc3)oc2=O)cc1
244 to 246 °C | O=C(O)c1ccc2c(=O)n(Cc3ccc(Cl)cc3Cl)cnc2c1
93 °C | CC1C(=O)N(c2ccccc2OCCCCBr)Sc2ccccc21 (stereo not drawn)
139 to 141 °C | N#Cc1c(CF)nn(-c2c(Cl)cc(C(F)(F)F)cc2Cl)c1N
75 to 90 °C | CCCCc1nc2c(c(C)c(C)n3nnnc23)n1CC(C)(C)NS(C)(=O)=O
136 to 137 °C | O=C(Nc1c([N+](=O)[O-])cnn1-c1c(Cl)cc(C(F)(F)F)c(Cl)c1Cl)C(F)(F)F
140 to 142 °C | Cn1c(=O)c(-c2c(Cl)cccc2Cl)cc2cnc(NCCCN3CCOCC3)nc21
132 °C | NC(=NO)c1nc(Cl)c(-c2c(F)cccc2Cl)c(Cl)c1Br
207 to 208 °C | CC(=O)c1cnc(-c2ccccc2)c(-c2ccc(=O)n(C(C)C)n2)c1
95 to 100 °C | O=C(NCC1(O)CCCCCC1)c1cc(-c2cccnc2C(=O)O)ccc1Cl
233 to 234 °C | COc1ccc2c(c1)CCc1c-2cc(-c2ccccc2)n1-c1ccc(O)c(C(=O)O)c1
197 to 198 °C | CC(C)N1CCC2(CC1)CSC1=C(O2)c2ccccc2C(=O)C1=O
216 °C | COc1cccc2c1c(=O)oc(=O)n2C
272 to 274 °C | N=C(NO)c1ccc(-c2ccc(-c3ccc(C(=N)NO)cn3)o2)nc1
146 to 148 °C | O=c1[nH]c(Cl)c(Cc2ccccc2)c(=O)n1Cc1ccccc1
177 to 179 °C | Cc1cc(=O)n(-c2ccc(Cl)cc2)cn1
146 to 147 °C | CC(C)=CCN1c2ccccc2NC(=O)C1(C)C
200 to 205 °C | CCCCNc1nc(C)c(C(=O)c2ccc(N)c([N+](=O)[O-])c2)s1
78 to 81 °C | CCOC(=O)c1cc(=O)cc(-c2ccccc2OC)o1
